Data on six compounds can be found in US20230151003A1, “COMPOUNDS AND METHODS OF USE” (Exelixis, Inc., priority 2020, published 2023).

For assay [1], the target named is T1, Mer (Homo sapiens, UniProt Q12866).
T1 construct: host or cells: 293A cells (Thermo Fisher #R70507)
T1 sequence (Q12866 21-999): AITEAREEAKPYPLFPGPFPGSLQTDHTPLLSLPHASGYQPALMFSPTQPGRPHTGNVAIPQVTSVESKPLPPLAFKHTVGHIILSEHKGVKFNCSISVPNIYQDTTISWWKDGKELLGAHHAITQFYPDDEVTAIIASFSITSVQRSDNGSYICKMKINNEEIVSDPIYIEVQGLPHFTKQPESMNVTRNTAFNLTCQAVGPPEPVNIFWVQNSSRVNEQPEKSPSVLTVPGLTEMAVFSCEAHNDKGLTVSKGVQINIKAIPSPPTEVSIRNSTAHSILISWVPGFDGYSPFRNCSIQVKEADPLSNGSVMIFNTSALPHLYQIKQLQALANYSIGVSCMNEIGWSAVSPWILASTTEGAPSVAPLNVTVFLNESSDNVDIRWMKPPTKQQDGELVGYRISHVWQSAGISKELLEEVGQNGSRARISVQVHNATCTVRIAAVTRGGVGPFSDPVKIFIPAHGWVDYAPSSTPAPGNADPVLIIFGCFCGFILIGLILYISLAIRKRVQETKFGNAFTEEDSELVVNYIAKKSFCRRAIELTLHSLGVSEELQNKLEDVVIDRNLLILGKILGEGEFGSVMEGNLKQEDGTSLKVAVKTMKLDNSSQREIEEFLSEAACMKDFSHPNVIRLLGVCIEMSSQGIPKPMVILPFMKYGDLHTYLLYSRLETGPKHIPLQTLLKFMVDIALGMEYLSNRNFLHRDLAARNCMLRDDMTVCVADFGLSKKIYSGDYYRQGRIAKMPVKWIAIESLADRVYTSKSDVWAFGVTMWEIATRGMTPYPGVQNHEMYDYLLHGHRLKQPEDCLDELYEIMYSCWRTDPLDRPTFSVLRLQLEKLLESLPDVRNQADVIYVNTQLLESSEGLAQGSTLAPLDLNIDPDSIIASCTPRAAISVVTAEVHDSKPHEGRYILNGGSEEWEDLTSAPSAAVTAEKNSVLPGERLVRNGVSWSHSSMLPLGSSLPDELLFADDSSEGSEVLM
The assay is described as follows: Mer autophosphorylation ELISA in transient transfected 293A cells. Conditions: Table 3 Cellular Activities; MERTK-transfected 293A cells, phospho-Mer ELISA. The class given is cell-based. An outline of the steps: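 Phospho-Mer quantified by ELISA in lysates of transiently MERTK-transfected 293A cells after 1 h exposure to an 8-point compound series, serum-free, 0.3% DMSO. Activity normalized between DMSO-treated (100%) and reference inhibitor-treated (0%) lysates; IC50 via 4-parameter nonlinear regression.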
Background: In an ELISA, binding on a coated surface is turned into a signal by an enzyme label.

Assay [2] deals with Met (Homo sapiens, UniProt P08581). Kind of assay: Met autophosphorylation ELISA in PC-3 cells. The class given is cell-based. Also noted: endogenous in cells; host or cells: PC-3 prostate cancer cells (ATCC #CRL-1435). The following applies: Table 3 Cellular Activities, HGF-stimulated, phospho-Met ELISA, read-out: c-Met IC50. A digest of the protocol:
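IC50 derived by 4-parameter logistic regression of phospho-Met (panTyr) sandwich ELISA signal, scaled between HGF-stimulated DMSO and reference-inhibitor lysates. PC-3 cells, serum-starved 3 h, received an 8-point compound series (0.3% DMSO) for 1 h before 10 min stimulation with 100 ng/mL human HGF.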

The structures appear in SMILES notation. Counter-ions that a name gives are not always drawn.

Chain of Met (P08581 25-1390): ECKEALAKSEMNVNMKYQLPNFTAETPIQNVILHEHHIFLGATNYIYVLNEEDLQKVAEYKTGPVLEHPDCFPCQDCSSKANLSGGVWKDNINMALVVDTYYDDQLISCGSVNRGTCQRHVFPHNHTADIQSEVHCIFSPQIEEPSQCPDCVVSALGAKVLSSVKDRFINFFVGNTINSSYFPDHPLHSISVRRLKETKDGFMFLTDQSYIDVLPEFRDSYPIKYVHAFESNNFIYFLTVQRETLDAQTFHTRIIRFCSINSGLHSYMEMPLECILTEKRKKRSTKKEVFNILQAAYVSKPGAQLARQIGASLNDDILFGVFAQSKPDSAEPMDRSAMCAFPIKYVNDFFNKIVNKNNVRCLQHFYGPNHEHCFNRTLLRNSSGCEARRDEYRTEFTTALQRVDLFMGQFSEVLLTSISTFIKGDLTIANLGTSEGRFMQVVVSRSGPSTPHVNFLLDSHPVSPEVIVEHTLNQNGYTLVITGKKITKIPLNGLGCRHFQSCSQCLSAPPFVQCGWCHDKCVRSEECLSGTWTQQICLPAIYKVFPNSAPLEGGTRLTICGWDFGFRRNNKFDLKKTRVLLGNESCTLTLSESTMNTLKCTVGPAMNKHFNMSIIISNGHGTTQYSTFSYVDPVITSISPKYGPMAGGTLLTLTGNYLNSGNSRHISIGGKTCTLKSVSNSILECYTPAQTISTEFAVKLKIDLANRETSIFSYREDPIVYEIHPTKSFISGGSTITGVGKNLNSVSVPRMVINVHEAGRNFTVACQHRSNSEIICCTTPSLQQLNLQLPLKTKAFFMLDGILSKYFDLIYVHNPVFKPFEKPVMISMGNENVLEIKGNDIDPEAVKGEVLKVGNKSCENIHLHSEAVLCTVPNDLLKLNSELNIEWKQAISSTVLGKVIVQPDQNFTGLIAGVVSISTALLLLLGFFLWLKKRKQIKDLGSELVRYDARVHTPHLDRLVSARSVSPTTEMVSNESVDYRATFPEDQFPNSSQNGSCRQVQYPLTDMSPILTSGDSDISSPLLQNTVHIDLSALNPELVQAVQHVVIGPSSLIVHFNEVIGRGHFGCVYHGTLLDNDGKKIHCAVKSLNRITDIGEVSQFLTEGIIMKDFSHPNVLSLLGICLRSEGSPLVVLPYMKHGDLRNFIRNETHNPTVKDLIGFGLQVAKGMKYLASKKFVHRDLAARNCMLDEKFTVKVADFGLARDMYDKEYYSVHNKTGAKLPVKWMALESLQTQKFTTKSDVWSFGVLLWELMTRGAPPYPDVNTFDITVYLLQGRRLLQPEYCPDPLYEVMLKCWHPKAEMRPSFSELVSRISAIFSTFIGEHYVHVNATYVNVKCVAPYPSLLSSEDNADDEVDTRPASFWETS

As a reminder, the IC50 is the point on the concentration scale where inhibition reaches its midpoint. As to `COc1cc2nccc(Oc3ccc(NC(=O)c4ccc(C)n(-c5ccc(F)c(C)n5)c4=O)cc3F)c2nc1OC` [Compound 227, N-[4-[(6,7-Dimethoxy-1,5-naphthyridin-4-yl)oxy]-3-fluorophenyl]-1-(5-fluoro-6-methylpyridin-2-yl)-6-methyl-2-oxopyridine-3-carboxamide hydrochloride], the concentration for half-maximal inhibition (IC50) in assay [1] and in assay [2] was ≤ 0.1 µM in each case.
In the case of `COc1cc2nccc(Oc3ccc(NC(=O)c4cccn(-c5cc[n+]([O-])cc5)c4=O)cc3F)c2nc1OC` [Compound 247, N-[4-[(6,7-Dimethoxy-1,5-naphthyridin-4-yl)oxy]-3-fluorophenyl]-1-(1-oxidopyridin-1-ium-4-yl)-2-oxopyridine-3-carboxamide hydrochloride], the IC50 in assay [1] and in assay [2] was ≤ 0.1 µM in each case.
Turning to `COc1cc2nccc(Oc3ccc(NC(=O)c4c(C)n(C)cc(-c5ccc(F)cn5)c4=O)cc3)c2nc1OC` [Compound 72, N-[4-[(6,7-Dimethoxy-1,5-naphthyridin-4-yl)oxy]phenyl]-5-(5-fluoropyridin-2-yl)-1,2-dimethyl-4-oxopyridine-3-carboxamide], the IC50 in assay [1] and in assay [2] was ≤ 0.1 µM throughout.
With `COc1cc2nccc(Oc3ccc(NC(=O)c4nnc(C)c(-c5ccc(F)cn5)c4OC)cc3F)c2nc1OC` [Compound 215, N-[4-[(6,7-Dimethoxy-1,5-naphthyridin-4-yl)oxy]-3-fluorophenyl]-5-(5-fluoropyridin-2-yl)-4-methoxy-6-methylpyridazine-3-carboxamide], the IC50 in assay [1] and in assay [2] was ≤ 0.1 µM throughout.
`COc1cc2nccc(Oc3ccc(NC(=O)c4c(C)nc(C)c(-c5ccc(F)cn5)c4O)cc3)c2nc1OC` [Compound 216, N-[4-[(6,7-Dimethoxy-1,5-naphthyridin-4-yl)oxy]phenyl]-5-(5-fluoropyridin-2-yl)-4-hydroxy-2,6-dimethylpyridine-3-carboxamide]: the IC50 in assay [1] and in assay [2] was ≤ 0.1 µM throughout.
`COc1ccc2nccc(Oc3ccc(NC(=O)c4ccc(C)n(-c5ccc(F)cn5)c4=O)cc3F)c2n1` [Compound 47, N-[3-Fluoro-4-[(6-methoxy-1,5-naphthyridin-4-yl)oxy]phenyl]-1-(5-fluoropyridin-2-yl)-6-methyl-2-oxopyridine-3-carboxamide]: the IC50 in assay [1] and in assay [2] was ≤ 0.1 µM in each case.
